According to patent US4824669A, “Formulations of coenzyme Q10 for intravenous use” (Board of Regents, The University of Texas System, priority 1987, dated 1989):
Like-named read-outs stand apart in the source and are kept apart here.

Experiments:
[1] = soybean oil in soft gelatin capsules; cited from earlier work
[2] = oral, cited from earlier work; for absorption (in words): human subjects
[3] = visible separation / stability of CoQ10 in commercial fat emulsions; type: physicochemical
Method: A preferred technique of preparing formulations of the present invention involved adding 1 ml of a fat emulsion such as Intralipid, Liposyn, Soyacal, and Travemulsion to each of three tubes. With a microsyringe, 1 μl of soybean oil containing 30 μg, 15 μg and 7.5 μg of CoQ10, respectively, was added to each of the three tubes containing 1 ml the fat emulsion. The microliter of soybean oil containing these three amounts of CoQ10 was easily visible by the yellow color on the surface of the fat emulsion. The contents of these tubes were cooled to less than about 5° C. and were then sonicated for about 5 seconds in an ice bath. The sonicated CoQ10 -fat emulsion was then drawn into a first syringe through the syringe needle. The needle of the first syringe was then connected to the needle of a second syringe. The CoQ10 -fat emulsion was then passed back and forth through the needles from the first syringe to the second syringe, and this mixing was repeated about 10 times. The needles of the two syringes were connected through a rubber stopper or a tubing, which sufficed for this laboratory scale preparation.

[4] = clinical use; cited from earlier work
[5] = solid particle dispersions in aqueous medium; cited from earlier work
[6] = blood levels on daily oral administration of CoQ10 capsules to patients; type: in vivo, human; conditions: if a blood level of 3 μg/ml of whole blood is achieved on oral therapy
Method: It is known from the existing clinical data from the daily oral administration of 100 mg of CoQ10 to patients (3 capsules of 33.3 mg each in soybean oil), that blood levels in the range of about 2-4 μg/ml whole blood may be achieved. These blood levels on daily oral administration of 3 capsules vary between about 1.5 and 4 μg/ml whole blood, depending upon the initial control level, the variation of oral absorption, patient compliance, etc. If a blood level of 3 μg/ml of whole blood is achieved on therapy, the amount of CoQ10 in the total blood volume would be about 15 mg. The gastrointestinal absorption of CoQ10 from 3 capsules/day is about 15% or 15-20% according to Lucker et al. (citation under Background of the Invention). However, as mentioned earlier herein, oral administration of CoQ10 is undependable and sometimes difficult.

[7] = blood CoQ10 levels expected after intravenous administration of CoQ10-fat emulsions; type: in vivo, human; conditions: i.v., control 5 mg
Method: The intravenous formulations of the present invention may be used, for example, to introduce 15 mg, 10 mg and 5 mg of CoQ10 into the total body blood volume by intravenous administration of about 500 ml containing 30 μg/ml, 15 μg/ml and 7.5 μg/ml, respectively, of CoQ10. On the basis that the control blood level of CoQ10 /total body volume is 5 mg, then the total body volume would contain 20 mg, 15 mg, and 10 mg, respectively, after the intravenous administration of the three formulations.
These three particular exemplary formulations of the present invention will allow the introduction of CoQ10 into the blood of patients to levels of 2, 3 and 4 μg/ml, respectively, for a total amount of CoQ10 /total body volume of blood of, for example, about 10, 15 and 20 mg, respectively.

[8] = 100 mg daily (3 capsules of 33.3 mg in soybean oil), patients; cited from earlier work
[9] = oral, coronary artery by-pass graft surgery; Sunamori et al.; cited from earlier work

COC1=C(OC)C(=O)C(C/C=C(\C)CC/C=C(\C)CC/C=C(\C)CC/C=C(\C)CC/C=C(\C)CC/C=C(\C)CC/C=C(\C)CC/C=C(\C)CC/C=C(\C)CCC=C(C)C)=C(C)C1=O [CoQ10, 2,3-dimethoxy-5-methyl-6-decaprenyl benzoquinone]
stability in encapsulated soybean oil [1]: up to 6 years | absorption (in words) [2]: very slow absorption | absorption (in words) ([2]; listed as coenzyme Q10): slow and inefficient | overall absorption of orally administered CoQ10 ([2]; human, Lucker et al.): 10-20% | orally administered dose recovered from the feces ([2]; study period of 10 days): ≤ 62% | separation of CoQ10 from the emulsion ([3]; 30, 15 and 7.5 μg/ml of commercial fat emulsion, sonicated and passed through syringe needles): did not visibly separate to the surface | stability of emulsions at high CoQ10 level ([3]; CoQ10 levels above about 30 μg/ml): tend to be unstable | stability of simple combination with commercial fat emulsion ([3]; simple combination of CoQ10 with one of the commercial fat emulsions): unstable formulations from which the CoQ10 would too readily separate | clinical safety record [4]: clinical record of safety of over a decade | settling on standing [5]: particles containing CoQ10 fall to the bottom of the container | amount of CoQ10 in the total blood volume [6]: about 15 mg | CoQ10 in total body blood volume after intravenous administration ([7]; about 500 ml containing 7.5 μg/ml): 10 mg | CoQ10 in total body blood volume after intravenous administration ([7]; about 500 ml containing 30 μg/ml): 20 mg | blood levels on daily oral administration [8]: 2-4 μg/ml whole blood | tissue concentrations of CoQ10 (in words) [9]: failed to allow satisfactory tissue concentrations of CoQ10
